By inhibition is commonly meant the share of the control response that was lost under treatment. One may read the IC50 as the point on the concentration scale where inhibition reaches its midpoint. A higher IC50 goes with weaker potency in that assay.

We go through 17 compounds from PMC6173509, “C-3- and C-4-Substituted Bicyclic Coumarin Sulfamates as Potent Steroid Sulfatase Inhibitors” (ACS Omega, 2018).

For test [1], the target named is T1, steroid sulfatase (STS) (Homo sapiens, UniProt P08842).
T1 sequence (P08842 22-583): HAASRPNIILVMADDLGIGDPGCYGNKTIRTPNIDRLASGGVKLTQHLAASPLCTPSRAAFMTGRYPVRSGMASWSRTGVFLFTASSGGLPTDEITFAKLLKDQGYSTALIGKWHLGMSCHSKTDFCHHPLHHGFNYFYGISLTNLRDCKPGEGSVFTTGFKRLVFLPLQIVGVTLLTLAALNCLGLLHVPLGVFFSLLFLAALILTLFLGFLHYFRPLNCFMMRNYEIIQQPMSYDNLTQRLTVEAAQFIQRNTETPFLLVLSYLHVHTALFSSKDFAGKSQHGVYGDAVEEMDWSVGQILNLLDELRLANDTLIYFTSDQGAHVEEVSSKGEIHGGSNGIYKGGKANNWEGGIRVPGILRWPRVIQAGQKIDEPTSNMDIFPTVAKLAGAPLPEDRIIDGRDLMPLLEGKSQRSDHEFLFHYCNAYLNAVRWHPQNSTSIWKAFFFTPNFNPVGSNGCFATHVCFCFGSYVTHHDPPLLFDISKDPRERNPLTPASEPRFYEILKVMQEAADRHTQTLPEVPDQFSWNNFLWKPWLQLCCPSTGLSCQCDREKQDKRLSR
The experiment in a line: STS inhibition in intact MCF-7 breast cancer cells. The test is classed as cell-based. Details: endogenous in cells; host or cells: MCF-7 breast cancer cells. The note with it: for inhibition at 0.01 µM: MCF7, read-out: % Inhibition of STS Activity in Intact MCF-7 Breast Cancer Cells at 0.01 μM; for inhibition at 0.1 µM: MCF7, read-out: % Inhibition of STS Activity in Intact MCF-7 Breast Cancer Cells at 0.1 μM; for inhibition at 1 µM: MCF7, read-out: % Inhibition of STS Activity in Intact MCF-7 Breast Cancer Cells at 1 μM; for inhibition at 10 µM: MCF7, read-out: % Inhibition of STS Activity in Intact MCF-7 Breast Cancer Cells at 10 μM; for IC50: 3 nM E1S.

Test [2] concerns the target T1, steroid sulfatase (STS). The experiment in a line: STS inhibition in placental microsomes. The test is classed as biochemical. Details: a placental microsomal preparation from a sulfatase-positive human placenta from a normal term pregnancy; from tissue; host or cells: human placenta (microsomal preparation). The note with it: 20 μM E1S; for inhibition at 0.01 µM: 0.01 μM inhibitor; for inhibition at 0.1 µM: 0.1 μM inhibitor; for inhibition at 1 µM: 1 μM inhibitor; for inhibition at 10 µM: 10 μM inhibitor.

As to `CCCCCCCCCCc1cc(=O)oc2cc(OS(N)(=O)=O)ccc12` [compound 15, 4-Decylcoumarin-7-O-sulfamate], at steroid sulfatase (STS) [1], the inhibition at 0.01 µM was 86%, the inhibition at 0.1 µM turned out to be 95%, the inhibition at 1 µM was determined as 98% and the inhibition at 10 µM was 100%. At steroid sulfatase (STS) [2], this compound returned an inhibition at 0.01 µM of 17%, an inhibition at 0.1 µM of 74%, an inhibition at 1 µM of 96% and an inhibition at 10 µM of 99%. Besides, on steroid sulfatase (STS) [2], the IC50 worked out at 0.06 µM.
As for `CCCCCCCCCCCCCc1cc(=O)oc2cc(OS(N)(=O)=O)ccc12` [compound 18, 4-Tridecylcoumarin-7-O-sulfamate], on steroid sulfatase (STS) [1], the IC50 came out at 0.0032 µM, the inhibition at 0.01 µM came out at 72% and the inhibition at 0.1 µM came out at 96%. At steroid sulfatase (STS) [2], this compound yielded an inhibition at 0.01 µM of 7%, an inhibition at 0.1 µM of 55%, an inhibition at 1 µM of 80% and an inhibition at 10 µM of 91%. This compound registered an IC50 at steroid sulfatase (STS) [2] of 0.085 µM.
Consider `Cc1c(CCCc2ccccc2)c(=O)oc2cc(OS(N)(=O)=O)ccc12` [compound 43, 4-Methyl-3-[3-phenylpropyl]coumarin-7-O-sulfamate], for which, on steroid sulfatase (STS) [1], the inhibition at 0.1 µM stood at 87%, the inhibition at 1 µM is 99% and the inhibition at 10 µM is 100%. Also, on steroid sulfatase (STS) [2], 0.1 µM produced 47% inhibition and the inhibition at 1 µM stood at 99%.
In the case of `CCCCCCCCc1cc(=O)oc2cc(OS(N)(=O)=O)ccc12` [compound 13, 4-Octylcoumarin-7-O-sulfamate], at steroid sulfatase (STS) [1], the inhibition at 0.1 µM was found to be 90%, the inhibition at 1 µM was 97% and the inhibition at 10 µM came to 99%. Also, at steroid sulfatase (STS) [2], the inhibition at 0.01 µM is 28%, the inhibition at 0.1 µM is 74%, 1 µM produced 97% inhibition and the inhibition at 10 µM stood at 99%. The same compound yielded an IC50 at steroid sulfatase (STS) [2] of 0.068 µM.
On to `CCCCCc1cc(=O)oc2cc(OS(N)(=O)=O)ccc12` [compound 10, 4-Pentylcoumarin-7-O-sulfamate], for which, on steroid sulfatase (STS) [1], half-maximal inhibition (IC50) required 0.01 µM, the inhibition at 0.01 µM amounted to 52%, the inhibition at 0.1 µM amounted to 88% and the inhibition at 1 µM came to 92%. Also, the inhibition at 10 µM at steroid sulfatase (STS) [1] worked out at 95%. Also, at steroid sulfatase (STS) [2], testing at 0.01 µM gave an inhibition of 22%, the inhibition at 0.1 µM was 70%, at 1 µM the inhibition was 97% and testing at 10 µM gave an inhibition of 99%. This compound returned a concentration for half-maximal inhibition (IC50) at steroid sulfatase (STS) [2] of 0.04 µM.
For the compound `NS(=O)(=O)Oc1ccc2c(CCl)cc(=O)oc2c1` [compound 21, 4-Chloromethylcoumarin-7-O-sulfamate], at steroid sulfatase (STS) [1], half-maximal inhibition (IC50) required 0.22 µM, the inhibition at 0.01 µM was 6%, the inhibition at 0.1 µM was 33% and the inhibition at 1 µM was determined as 82%. Moreover, the inhibition at 10 µM on steroid sulfatase (STS) [1] worked out at 92%. For the same compound, on steroid sulfatase (STS) [2], the inhibition at 0.01 µM came to 10%, at 0.1 µM the inhibition was 19%, at 1 µM the inhibition was 59% and the inhibition at 10 µM was found to be 94%. The same compound gave a concentration for half-maximal inhibition (IC50) against steroid sulfatase (STS) [2] of 0.6 µM.
For `CCCCCCc1c(C)c2ccc(OS(N)(=O)=O)cc2oc1=O` [compound 29, 3-Hexyl-4-methylcoumarin-7-O-sulfamate], on steroid sulfatase (STS) [1], the inhibition at 0.1 µM worked out at 99%, the inhibition at 1 µM was found to be 100% and the inhibition at 10 µM stood at 100%. Further, on steroid sulfatase (STS) [2], testing at 0.01 µM gave an inhibition of 13%, the inhibition at 0.1 µM came out at 88%, 1 µM produced 99% inhibition and the inhibition at 10 µM came to 99%.
Turning to `CCCCCc1c(C)c2ccc(OS(N)(=O)=O)cc2oc1=O` [compound 28, 4-Methyl-3-pentylcoumarin-7-O-sulfamate], at steroid sulfatase (STS) [1], the inhibition at 0.1 µM was determined as 97%, the inhibition at 1 µM came out at 99% and the inhibition at 10 µM was 100%. Further, at steroid sulfatase (STS) [2], the inhibition at 0.01 µM amounted to 41%, the inhibition at 0.1 µM is 94%, the inhibition at 1 µM amounted to 99% and the inhibition at 10 µM worked out at 100%. On steroid sulfatase (STS) [2], this compound displayed an IC50 of 0.012 µM.
For `Cc1c(Cc2ccccc2)c(=O)oc2cc(OS(N)(=O)=O)ccc12` [compound 41, 3-Benzyl-4-methylcoumarin-7-O-sulfamate], on steroid sulfatase (STS) [1], the inhibition at 0.01 µM came to 85%, the inhibition at 0.1 µM was 91%, the inhibition at 1 µM amounted to 94% and the inhibition at 10 µM came to 97%. At steroid sulfatase (STS) [2], the inhibition at 0.01 µM came to 53%, the inhibition at 0.1 µM worked out at 94% and the inhibition at 1 µM is 99%.
`NS(=O)(=O)Oc1ccc2c(Cc3ccccc3)cc(=O)oc2c1` [compound 23, 4-Benzylcoumarin-7-O-sulfamate]: at steroid sulfatase (STS) [1], it took 0.075 µM to reach half-maximal inhibition (IC50), the inhibition at 0.01 µM was found to be 8%, the inhibition at 0.1 µM amounted to 55% and the inhibition at 1 µM stood at 70%. The inhibition at 10 µM on steroid sulfatase (STS) [1] is 84%. On steroid sulfatase (STS) [2], the inhibition at 0.01 µM was 2%, the inhibition at 0.1 µM worked out at 61%, the inhibition at 1 µM came out at 96% and the inhibition at 10 µM amounted to 99%. The same compound displayed a concentration for half-maximal inhibition (IC50) on steroid sulfatase (STS) [2] of 0.064 µM.
In the case of `NS(=O)(=O)Oc1ccc2c(C3CCCCC3)cc(=O)oc2c1` [compound 26, 4-Cyclohexylcoumarin-7-O-sulfamate], at steroid sulfatase (STS) [1], the IC50 amounted to 0.024 µM, the inhibition at 0.01 µM turned out to be 37%, the inhibition at 0.1 µM is 72% and the inhibition at 1 µM stood at 80%. Besides, on steroid sulfatase (STS) [1], the inhibition at 10 µM was 93%. Moreover, at steroid sulfatase (STS) [2], testing at 0.01 µM gave an inhibition of 9%, 0.1 µM produced 69% inhibition, the inhibition at 1 µM was found to be 94% and at 10 µM the inhibition was 99%. The same compound yielded an IC50 on steroid sulfatase (STS) [2] of 0.042 µM.
Take `CCCCCCCCCCc1c(C)c2ccc(OS(N)(=O)=O)cc2oc1=O` [compound 33, 3-Decyl-4-methylcoumarin-7-O-sulfamate]: on steroid sulfatase (STS) [1], the IC50 was less than 0.01 µM, the inhibition at 0.01 µM is 80%, the inhibition at 0.1 µM is 97% and the inhibition at 1 µM came out at 99%. Moreover, the inhibition at 10 µM at steroid sulfatase (STS) [1] turned out to be 97%. On steroid sulfatase (STS) [2], the inhibition at 0.01 µM amounted to 3%, the inhibition at 0.1 µM was 33%, the inhibition at 1 µM is 79% and the inhibition at 10 µM was 94%. The IC50 against steroid sulfatase (STS) [2] turned out to be 0.25 µM.
For the compound `CCCCCCCCCCCCc1cc(=O)oc2cc(OS(N)(=O)=O)ccc12` [compound 17, 4-Dodecylcoumarin-7-O-sulfamate], on steroid sulfatase (STS) [1], the inhibition at 0.01 µM worked out at 22%, the inhibition at 0.1 µM turned out to be 67%, the inhibition at 1 µM is 95% and the inhibition at 10 µM was found to be 98%. Besides, at steroid sulfatase (STS) [2], the inhibition at 0.01 µM amounted to 17%, the inhibition at 0.1 µM came out at 68%, the inhibition at 1 µM was determined as 89% and 10 µM produced 96% inhibition. Besides, half-maximal inhibition at steroid sulfatase (STS) [2] (IC50) was put at 0.045 µM.
As to `CCCCCCCCCc1c(C)c2ccc(OS(N)(=O)=O)cc2oc1=O` [compound 32, 4-Methyl-3-nonylcoumarin-7-O-sulfamate], at steroid sulfatase (STS) [1], the concentration for half-maximal inhibition (IC50) was roughly 0.01 µM, the inhibition at 0.01 µM turned out to be 57%, the inhibition at 0.1 µM is 96% and the inhibition at 1 µM was determined as 99%. For the same compound, the inhibition at 10 µM at steroid sulfatase (STS) [1] is 99%. For the same compound, at steroid sulfatase (STS) [2], the inhibition at 0.01 µM was 21%, the inhibition at 0.1 µM was determined as 85%, the inhibition at 1 µM stood at 97% and testing at 10 µM gave an inhibition of 98%.
For `NS(=O)(=O)Oc1ccc2c(CCc3ccccc3)cc(=O)oc2c1` [compound 24, 4-(2-Phenylethyl)coumarin-7-O-sulfamate], at steroid sulfatase (STS) [1], the IC50 was found to be 0.018 µM, the inhibition at 0.01 µM is 39%, the inhibition at 0.1 µM is 84% and the inhibition at 1 µM stood at 95%. The inhibition at 10 µM at steroid sulfatase (STS) [1] is 98%. In addition, on steroid sulfatase (STS) [2], the inhibition at 0.01 µM was determined as 8%, at 0.1 µM the inhibition was 53%, at 1 µM the inhibition was 93% and testing at 10 µM gave an inhibition of 98%. Also, the IC50 on steroid sulfatase (STS) [2] worked out at 0.082 µM.
`CCCCCCCCc1c(C)c2ccc(OS(N)(=O)=O)cc2oc1=O` [compound 31, 4-Methyl-3-octylcoumarin-7-O-sulfamate]: at steroid sulfatase (STS) [1], the inhibition at 0.1 µM is 99%, the inhibition at 1 µM was 100% and the inhibition at 10 µM stood at 100%. On steroid sulfatase (STS) [2], this compound registered an inhibition at 0.01 µM of 21%, an inhibition at 0.1 µM of 71%, an inhibition at 1 µM of 98% and an inhibition at 10 µM of 99%.
As to `CCCCCCCc1c(C)c2ccc(OS(N)(=O)=O)cc2oc1=O` [compound 30, 3-Heptyl-4-methylcoumarin-7-O-sulfamate], at steroid sulfatase (STS) [1], the inhibition at 0.1 µM stood at 99%, the inhibition at 1 µM was 100% and the inhibition at 10 µM was 100%. On steroid sulfatase (STS) [2], this compound registered an inhibition at 0.01 µM of 23%, an inhibition at 0.1 µM of 65%, an inhibition at 1 µM of 97% and an inhibition at 10 µM of 99%.
